The values that follow come from patent US5356920A, “Imidazol-2-yl derivatives of substituted bicyclic compounds” (priority 1990, dated 1994).

For data set [1], the target named is T1, acyl CoA:cholesterol acyltransferase (ACAT-EC 2.3.1.26) (Oryctolagus cuniculus, UniProt A0A5F9CPP4).
T1 construct: microsomal preparations from atherosclerotic rabbit thoracic aorta (intima media); from tissue; host or cells: microsomes from atherosclerotic rabbit thoracic aorta (intima media)
T1 sequence (A0A5F9CPP4 1-555): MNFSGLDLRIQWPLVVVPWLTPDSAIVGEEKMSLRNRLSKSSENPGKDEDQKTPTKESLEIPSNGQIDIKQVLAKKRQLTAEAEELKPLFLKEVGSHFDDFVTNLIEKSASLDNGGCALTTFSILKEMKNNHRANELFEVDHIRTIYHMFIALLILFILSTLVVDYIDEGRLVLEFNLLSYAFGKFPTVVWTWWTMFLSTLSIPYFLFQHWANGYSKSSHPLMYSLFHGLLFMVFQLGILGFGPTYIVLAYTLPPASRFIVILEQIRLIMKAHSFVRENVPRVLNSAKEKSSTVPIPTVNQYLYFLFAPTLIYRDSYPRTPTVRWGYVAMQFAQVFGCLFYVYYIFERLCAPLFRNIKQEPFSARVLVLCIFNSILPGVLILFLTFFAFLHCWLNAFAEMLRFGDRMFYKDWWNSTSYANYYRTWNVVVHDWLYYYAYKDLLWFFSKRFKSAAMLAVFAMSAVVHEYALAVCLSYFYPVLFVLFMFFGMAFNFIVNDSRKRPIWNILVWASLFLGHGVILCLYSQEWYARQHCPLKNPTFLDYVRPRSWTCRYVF
The settings on record: Hudson H., Day A., Atherosclerosis (1982) 45, 109; cited from earlier work.

Data set [2] concerns the target T1, acyl CoA:cholesterol acyltransferase (ACAT-EC 2.3.1.26). The experiment in a line: ACAT inhibition in microsomes from atherosclerotic rabbit thoracic aorta (intima media). Format: biochemical. Conditions: microsomes from atherosclerotic rabbit thoracic aortas; limits p = 0.95.
Data set [3] in a line: orientative acute toxicity (LD50), single oral administration, assessed on the seventh day, mice. Conditions: mouse, in vivo, nine hours food deprived. How it is done:
The toxicity of the compounds of the invention is negligible, therefore they can be safely used in therapy. Nine hours food deprived mice and rats were treated orally with single administration of increasing doses, then housed and normally fed. The orientative acute toxicity (LD50) was assessed on the seventh day after the treatment, for instance a LD50 greater than 800 mg/kg was found in mice for the compound coded as FCE 27116.

`CC(C)(Oc1ccc(CCNC(=O)c2ccc(Cl)cc2)cc1)C(=O)O` [Bezafibrate]: in data set [1], the “inhibitory activity in vitro (rabbit arterial microsomes)” value is given as “inhibitory activity in vitro (rabbit arterial microsomes) has been already demonstrated”.

Regarding `CCOC(=O)C1(CCCOc2ccc3c(c2)C=C(c2nccn2C)C(CCc2ccccc2)O3)CCCC1` (racemic) [FCE 27051, ethyl (+-)-1-[3-(2-(2-phenylethyl)-3-(1-methyl-1H-imidazol-2-yl)-2H-1-benzopyran-6-yl)oxypropyl]cyclopentane-1-carboxylate], the IC50 in data set [2] turned out to be 66.8 nM.

In turn, `CC(C)c1cccc(C(C)C)c1NC(=O)C(C)(C)CCCOc1ccc2c(c1)C=C(c1nccn1C)C(CCc1ccc(F)cc1F)O2` (racemic) [FCE 27113, (+-)-5-[2-(2-(2,4-difluorophenyl)ethyl)-3-(1-methyl-1H-imidazol-2-yl)-2H-1-benzopyran-6-yl)oxy-2,2-dimethyl-N-(2,6-diisopropylphenyl)pentanamide] returned an IC50 in data set [2] of 82.2 nM.

`CC(C)c1cccc(C(C)C)c1NC(=O)C(C)(C)CCCOc1ccc2c(c1)C=C(c1nccn1C)C(CCc1ccccc1)O2` (racemic) [FCE 26734, (+-)-5-[2-(2-phenylethyl)-3-(1-methyl-1H-imidazol-2-yl)-2H-1-benzopyran-6-yl]oxy-2,2-dimethyl-N-(2,6-diisopropylphenyl)pentanamide]: in data set [2], the IC50 was 85.1 nM. The IC50 values of the last two compounds are within 1.5-fold of each other.

For `CCCC1Oc2ccc(OCCCC(C)(C)C(=O)OCC)cc2C=C1c1nccn1C` (racemic) [FCE 25184, ethyl (+-)-5-[2-propyl-3-(1-methyl-1H-imidazol-2-yl)-2H-benzopyran-6-yl]oxy-2,2-dimethylpentanoate, reference compound], the IC50 in data set [2] was 1060 nM.

On to `Cn1ccnc1C1=Cc2cc(OCCCC(C)(C)C(=O)NC3CCCCC3)ccc2OC1CCc1ccc(F)cc1` (racemic) [FCE 27116, (+-)-5-[2-(2-(4-fluorophenyl)ethyl)-3-(1-methyl-1H-imidazol-2-yl)-2H-1-benzopyran-6-yl]oxy-2,2-dimethyl-N-cyclohexylpentanamide], for which, in data set [3], the LD50 at 168 h was greater than 800 mg/kg. In data set [2], the IC50 was found to be 39.9 nM.
